Earlier results on 1 compound are cited in patent US20100204159A1, “ORGANIC COMPOUNDS AND THEIR USES” (priority 2006, published 2010).

This data set relates to HCV. The conditions noted are these: ribavirin alone; Davis, Gastroenterology 118:S104-S114, 2000.

With `NC(=O)c1ncn([C@@H]2O[C@H](CO)[C@@H](O)[C@H]2O)n1` [Ribavirin, 1-β-D-ribofuranosyl-1-1,2,4-triazole-3-caroxamide], the “effect on serum levels of HCV-RNA” value is given as “does not lower serum levels of HCV-RNA” and the “patients in whom serum amino transferase levels are reduced to normal” value is 40 % of patients.
